From US20070270409A1, “Medicament for Preventing and/or Treating Ischemic Cardiovascular Disease” (Mitsubishi Pharma Corporation, priority 2004, published 2007)

Tested on: patients with anterior ST-segment elevation myocardial infarction undergoing PCI
Assay: Clinical study of caldaret in patients undergoing PCI: SPECT measurements and cardiac serum markers
Format: in vivo
Details: for Infarct size (% of the left ventricle): continuous intravenous 48 hours started about 30 minutes before PCI; for Infarct size (% of the left ventricle) / EDV (left ventricular end-diastolic volume) / ESV (left ventricular end-systolic volume) / LVEF (left ventricular ejection fraction): SPECT at day 7; for Infarct size (% of the left ventricle) / Serum marker CK / Serum marker TnT / EDV (left ventricular end-diastolic volume) / ESV (left ventricular end-systolic volume) / LVEF (left ventricular ejection fraction): TIMI flow grade 0 or 1; for Serum marker CK / Serum marker TnT / EDV (left ventricular end-diastolic volume) / ESV (left ventricular end-systolic volume) / LVEF (left ventricular ejection fraction): continuous intravenous 48 hours; for Serum marker CK: AUC of CK at days 0 to 3; for Serum marker TnT: AUC of TnT at days 0 to 5
Experimental: Three hundred and eighty-seven patients with ΣST elevation of 10 mm or more undergoing PCI were divided into 3 groups: a caldaret non-administration group; a 61.5 mg caldaret administration group (57.5 mg in terms of 5-methyl-2-(1-piperazinyl)benzenesulfonic acid) (low-dose group); and a 184.6 mg caldaret administration group (172.5 mg in terms of 5-methyl-2-(1-piperazinyl)benzenesulfonic acid) (high-dose group). To these patients, administration of placebo (the caldaret non-administration group) or caldaret (the low-dose group and the high-dose group) was initiated about 30 minutes before PCI was performed. Placebo or caldaret was continuously administered intravenously for 48 hours. At day 7 after administration (the initiation day of adminstration=day 0 after administration, and hereinafter the same), the infarct size, the left ventricular end-systolic volume (ESV), the left ventricular end-diastolic volume (EDV) and the left ventricular ejection fraction (LVEF) were measured by SPECT and the cardiac serum markers were measured. Incidentally, as for the serum markers, AUC of TnT at days 0 to 5 after administration and AUC of CK at days 0 to 3 after administration were measured.
Hereinafter, the measurement results in 247 patients with TIMI flow grade 0 or 1 diagnosed with anterior ST-segment elevation myocardial infarction (88 patients in the low-dose group, 70 patients in the high-dose group and 89 patients in the caldaret non-administration group) are shown.

[1] = high-dose group, 184.6 mg caldaret
[2] = low-dose group, 61.5 mg caldaret

Cc1ccc(N2CCNCC2)c(S(=O)(=O)O)c1.O [caldaret, 5-methyl-2-(1-piperazinyl)benzenesulfonic acid monohydrate]
All the measurement parameters compared with the non-administration group (359 patients with anterior ST-segment elevation myocardial infarction regardless of the TIMI flow grade, low-dose and high-dose groups): improving tendency
Infarct size (% of the left ventricle) [1]: 25.7 (b) % of the left ventricle
Serum marker CK [1]: 1157 (*) IU/I
Serum marker TnT [1]: 4.3 mg/L
EDV (left ventricular end-diastolic volume) [1]: 134.1 mL
ESV (left ventricular end-systolic volume) [1]: 78.0 mL
LVEF (left ventricular ejection fraction) [1]: 38.1 (*) %
Infarct size (% of the left ventricle) [2]: 24.4 (a) % of the left ventricle
Serum marker CK [2]: 1144 (*) IU/I
Serum marker TnT [2]: 5 mg/L
EDV (left ventricular end-diastolic volume) [2]: 138.4 mL
ESV (left ventricular end-systolic volume) [2]: 80.7 mL
LVEF (left ventricular ejection fraction) [2]: 36.6%
Effect on myocardial injury and myocardial function (patient with anterior ST-segment elevation myocardial infarction undergoing percutaneous coronary intervention, overall conclusion): can alleviate myocardial injury and preserve myocardial function
